In US5843889A, “Glycopeptide antibiotic derivatives” (Eli Lilly and Company, priority 1997, dated 1998) one finds MIC data, which are given here for 18 molecules.

Holding throughout (assay): MIC, standard broth micro-dilution assay
Assay type in all cases: cell-based
(In general: Dilution methods test growth across graded concentrations, often in twofold steps.)

The test system of experiment [1] is Entercoccus faecalis 2041. Here is the method: (§1) The formula I compounds have in vitro and in vivo activity against Gram-positive pathogenic bacteria. The MIC's were determined using a standard broth micro-dilution assay.
Experiment [2] deals with Entercoccus faecalis 276. The procedure: as §1
Experiment [3] relates to Entercoccus gallinarum 245. Here is the method:
as §1

≈ marks a conversion by molar mass, not a printed value.

What is called MIC is the lowest concentration found to suppress growth. Higher therefore signals weaker potency. For the molecule `CNC(CC(C)C)C(=O)NC1C(=O)NC(CC(N)=O)C(=O)NC2C(=O)NC3C(=O)NC(C(=O)NC(C(=O)O)c4cc(O)cc(O)c4-c4cc3ccc4O)C(OC3CC(C)(N)C(O)C(C)O3)c3ccc(c(Cl)c3)Oc3cc2cc(c3OC2OC(CO)C(O)C(O)C2OC2CC(C)(NCCCCCCCCOc3ccc(-c4ccccc4)cc3)C(O)C(C)O2)Oc2ccc(cc2Cl)C1O` (stereo not drawn) [Compound 201, 8-[4-phenylphenoxy]octyl], the values for the MIC in experiment [1], in experiment [2] and in experiment [3] were 1 µg/mL (≈ 0.534 µM), 4 µg/mL (≈ 2.14 µM) and 8 µg/mL (≈ 4.27 µM), respectively.

Regarding `CNC(CC(C)C)C(=O)NC1C(=O)NC(CC(N)=O)C(=O)NC2C(=O)NC3C(=O)NC(C(=O)NC(C(=O)O)c4cc(O)cc(O)c4-c4cc3ccc4O)C(OC3CC(C)(N)C(O)C(C)O3)c3ccc(c(Cl)c3)Oc3cc2cc(c3OC2OC(CO)C(O)C(O)C2OC2CC(C)(NCc3cccc(Oc4cccc(C(F)(F)F)c4)c3)C(O)C(C)O2)Oc2ccc(cc2Cl)C1O` (stereo not drawn) [Compound 203], the MIC in experiment [1] came out at 0.25 µg/mL (≈ 0.136 µM); in experiment [2], 0.5 µg/mL (≈ 0.271 µM); in experiment [3] it was 2 µg/mL (≈ 1.09 µM).

As to `CNC(CC(C)C)C(=O)NC1C(=O)NC(CC(N)=O)C(=O)NC2C(=O)NC3C(=O)NC(C(=O)NC(C(=O)O)c4cc(O)cc(O)c4-c4cc3ccc4O)C(OC3CC(C)(N)C(O)C(C)O3)c3ccc(c(Cl)c3)Oc3cc2cc(c3OC2OC(CO)C(O)C(O)C2OC2CC(C)(NCCCCC3CCCCC3)C(O)C(C)O2)Oc2ccc(cc2Cl)C1O` (stereo not drawn) [Compound 205, 4-cyclohexylbutyl], the figures for the MIC in experiment [1], in experiment [2] and in experiment [3] were 0.25 µg/mL (≈ 0.144 µM), 0.5 µg/mL (≈ 0.289 µM) and 1 µg/mL (≈ 0.578 µM), respectively.

Take `CNC(CC(C)C)C(=O)NC1C(=O)NC(CC(N)=O)C(=O)NC2C(=O)NC3C(=O)NC(C(=O)NC(C(=O)O)c4cc(O)cc(O)c4-c4cc3ccc4O)C(OC3CC(C)(N)C(O)C(C)O3)c3ccc(c(Cl)c3)Oc3cc2cc(c3OC2OC(CO)C(O)C(O)C2OC2CC(C)(NCc3ccc(-c4ccccc4)cc3F)C(O)C(C)O2)Oc2ccc(cc2Cl)C1O` (stereo not drawn) [Compound 206, 4-phenyl-2-fluorobenzyl]: the MIC was 0.25 µg/mL (≈ 0.141 µM) in experiment [1], not above 0.06 µg/mL in experiment [2] and 1 µg/mL (≈ 0.563 µM) in experiment [3].

On to `CNC(CC(C)C)C(=O)NC1C(=O)NC(CC(N)=O)C(=O)NC2C(=O)NC3C(=O)NC(C(=O)NC(C(=O)O)c4cc(O)cc(O)c4-c4cc3ccc4O)C(OC3CC(C)(N)C(O)C(C)O3)c3ccc(c(Cl)c3)Oc3cc2cc(c3OC2OC(CO)C(O)C(O)C2OC2CC(C)(NCc3ccc(N=Nc4ccccc4)cc3)C(O)C(C)O2)Oc2ccc(cc2Cl)C1O` (stereo not drawn) [Compound 210, 4-[phenylazo]benzyl], for which the MIC in experiment [1] was not above 0.06 µg/mL; in experiment [2], not above 0.06 µg/mL; in experiment [3], 1 µg/mL (≈ 0.56 µM).

`CNC(CC(C)C)C(=O)NC1C(=O)NC(CC(N)=O)C(=O)NC2C(=O)NC3C(=O)NC(C(=O)NC(C(=O)O)c4cc(O)cc(O)c4-c4cc3ccc4O)C(OC3CC(C)(N)C(O)C(C)O3)c3ccc(c(Cl)c3)Oc3cc2cc(c3OC2OC(CO)C(O)C(O)C2OC2CC(C)(NCc3ccc(-c4ccc(F)cc4)cc3)C(O)C(C)O2)Oc2ccc(cc2Cl)C1O` (stereo not drawn) [Compound 211, 4-[4-flurophenyl]benzyl]: the MIC in experiment [1], in experiment [2] and in experiment [3] was not above 0.06 µg/mL throughout.

With `CNC(CC(C)C)C(=O)NC1C(=O)NC(CC(N)=O)C(=O)NC2C(=O)NC3C(=O)NC(C(=O)NC(C(=O)O)c4cc(O)cc(O)c4-c4cc3ccc4O)C(OC3CC(C)(N)C(O)C(C)O3)c3ccc(c(Cl)c3)Oc3cc2cc(c3OC2OC(CO)C(O)C(O)C2OC2CC(C)(NCc3ccc(-c4ccc([N+](=O)[O-])cc4)c([N+](=O)[O-])c3)C(O)C(C)O2)Oc2ccc(cc2Cl)C1O` (stereo not drawn) [Compound 212, 3-nitro-4-[4-nitrophenyl]benzyl], the figures for the MIC in experiment [1], in experiment [2] and in experiment [3] were not above 0.06 µg/mL, not above 0.06 µg/mL and 1 µg/mL (≈ 0.541 µM), respectively.

Regarding `CNC(CC(C)C)C(=O)NC1C(=O)NC(CC(N)=O)C(=O)NC2C(=O)NC3C(=O)NC(C(=O)NC(C(=O)O)c4cc(O)cc(O)c4-c4cc3ccc4O)C(OC3CC(C)(N)C(O)C(C)O3)c3ccc(c(Cl)c3)Oc3cc2cc(c3OC2OC(CO)C(O)C(O)C2OC2CC(C)(NCc3ccc(-c4ccccc4[N+](=O)[O-])c([N+](=O)[O-])c3)C(O)C(C)O2)Oc2ccc(cc2Cl)C1O` (stereo not drawn) [Compound 213, 3-nitro-4-[2-nitrophenyl]benzyl], the values for the MIC in experiment [1], in experiment [2] and in experiment [3] were not above 0.06 µg/mL, not above 0.06 µg/mL and 2 µg/mL (≈ 1.08 µM), respectively.

Regarding `C=CCCCCNC1(C)CC(OC2C(Oc3c4cc5cc3Oc3ccc(cc3Cl)C(OC3CC(C)(N)C(O)C(C)O3)C3NC(=O)C(NC(=O)C5NC(=O)C(CC(N)=O)NC(=O)C(NC(=O)C(CC(C)C)NC)C(O)c5ccc(c(Cl)c5)O4)c4ccc(O)c(c4)-c4c(O)cc(O)cc4C(C(=O)O)NC3=O)OC(CO)C(O)C2O)OC(C)C1O` (stereo not drawn) [Compound 217, 5-hexenyl], the MIC in experiment [1] is not above 0.06 µg/mL; in experiment [2] it was not above 0.06 µg/mL; in experiment [3] it was 8 µg/mL (≈ 4.78 µM).

In the case of `CNC(CC(C)C)C(=O)NC1C(=O)NC(CC(N)=O)C(=O)NC2C(=O)NC3C(=O)NC(C(=O)NC(C(=O)O)c4cc(O)cc(O)c4-c4cc3ccc4O)C(OC3CC(C)(N)C(O)C(C)O3)c3ccc(c(Cl)c3)Oc3cc2cc(c3OC2OC(CO)C(O)C(O)C2OC2CC(C)(NCc3ccc(OCCCCCCc4ccccc4)cc3)C(O)C(C)O2)Oc2ccc(cc2Cl)C1O` (stereo not drawn) [Compound 219, 4-[6-phenylhexyloxy]benzyl], the MIC in experiment [1], in experiment [2] and in experiment [3] was 2 µg/mL (≈ 1.08 µM) throughout.

Take `CNC(CC(C)C)C(=O)NC1C(=O)NC(CC(N)=O)C(=O)NC2C(=O)NC3C(=O)NC(C(=O)NC(C(=O)O)c4cc(O)cc(O)c4-c4cc3ccc4O)C(OC3CC(C)(N)C(O)C(C)O3)c3ccc(c(Cl)c3)Oc3cc2cc(c3OC2OC(CO)C(O)C(O)C2OC2CC(C)(NCc3ccc(-c4ccc(C)cc4)cc3C)C(O)C(C)O2)Oc2ccc(cc2Cl)C1O` (stereo not drawn) [Compound 222, 4-[4-methylphenyl]-2-methylbenzyl]: the MIC in experiment [1] was not above 0.06 µg/mL; in experiment [2] it was not above 0.06 µg/mL; in experiment [3], 1 µg/mL (≈ 0.56 µM).

For `CNC(CC(C)C)C(=O)NC1C(=O)NC(CC(N)=O)C(=O)NC2C(=O)NC3C(=O)NC(C(=O)NC(C(=O)O)c4cc(O)cc(O)c4-c4cc3ccc4O)C(OC3CC(C)(N)C(O)C(C)O3)c3ccc(c(Cl)c3)Oc3cc2cc(c3OC2OC(CO)C(O)C(O)C2OC2CC(C)(NCc3ccc(-c4cccc(C)c4)cc3)C(O)C(C)O2)Oc2ccc(cc2Cl)C1O` (stereo not drawn) [Compound 224, 4-[3-methylphenyl]benzyl], the MIC in experiment [1] is not above 0.06 µg/mL; in experiment [2], not above 0.06 µg/mL; in experiment [3] it was 0.5 µg/mL (≈ 0.282 µM).

With `CCCCCC#Cc1ccc(CNC2(C)CC(OC3C(Oc4c5cc6cc4Oc4ccc(cc4Cl)C(OC4CC(C)(N)C(O)C(C)O4)C4NC(=O)C(NC(=O)C6NC(=O)C(CC(N)=O)NC(=O)C(NC(=O)C(CC(C)C)NC)C(O)c6ccc(c(Cl)c6)O5)c5ccc(O)c(c5)-c5c(O)cc(O)cc5C(C(=O)O)NC4=O)OC(CO)C(O)C3O)OC(C)C2O)cc1` (stereo not drawn) [Compound 227, 4-[1-heptynyl]benzyl], the MIC turned out to be 0.25 µg/mL (≈ 0.141 µM) in experiment [1], 0.5 µg/mL (≈ 0.281 µM) in experiment [2] and 4 µg/mL (≈ 2.25 µM) in experiment [3].

Turning to `CNC(CC(C)C)C(=O)NC1C(=O)NC(CC(N)=O)C(=O)NC2C(=O)NC3C(=O)NC(C(=O)NC(C(=O)O)c4cc(O)cc(O)c4-c4cc3ccc4O)C(OC3CC(C)(N)C(O)C(C)O3)c3ccc(c(Cl)c3)Oc3cc2cc(c3OC2OC(CO)C(O)C(O)C2OC2CC(C)(NCc3cccc(Sc4ccc(C(C)(C)C)cc4)c3)C(O)C(C)O2)Oc2ccc(cc2Cl)C1O` (stereo not drawn) [Compound 228, 3-[4-t-butyl-phenylthio]benzyl], the MIC turned out to be 0.25 µg/mL (≈ 0.135 µM) in experiment [1], 1 µg/mL (≈ 0.541 µM) in experiment [2] and 4 µg/mL (≈ 2.17 µM) in experiment [3].

Turning to `CNC(CC(C)C)C(=O)NC1C(=O)NC(CC(N)=O)C(=O)NC2C(=O)NC3C(=O)NC(C(=O)NC(C(=O)O)c4cc(O)cc(O)c4-c4cc3ccc4O)C(OC3CC(C)(N)C(O)C(C)O3)c3ccc(c(Cl)c3)Oc3cc2cc(c3OC2OC(CO)C(O)C(O)C2OC2CC(C)(NCc3ccc(-c4ccc(Cl)cc4)cc3)C(O)C(C)O2)Oc2ccc(cc2Cl)C1O` (stereo not drawn) [Compound 229, 4-[4-chlorophenyl]benzyl-A82846B], the minimal inhibitory concentration (MIC) was not above 0.06 µg/mL in experiment [1], 0.25 µg/mL (≈ 0.139 µM) in experiment [2] and 2 µg/mL (≈ 1.12 µM) in experiment [3].

As to `CNC(CC(C)C)C(=O)NC1C(=O)NC(CC(N)=O)C(=O)NC2C(=O)NC3C(=O)NC(C(=O)NC(C(=O)O)c4cc(O)cc(O)c4-c4cc3ccc4O)C(OC3CC(C)(N)C(O)C(C)O3)c3ccc(c(Cl)c3)Oc3cc2cc(c3OC2OC(CO)C(O)C(O)C2OC2CC(C)(NCc3ccc(-c4ccc(Br)cc4)cc3)C(O)C(C)O2)Oc2ccc(cc2Cl)C1O` (stereo not drawn) [Compound 230, 4-[4-bromophenyl]benzyl], the MIC in experiment [1] was not above 0.06 µg/mL; in experiment [2] it was not above 0.06 µg/mL; in experiment [3], 2 µg/mL (≈ 1.09 µM).

Regarding `CNC(CC(C)C)C(=O)NC1C(=O)NC(CC(N)=O)C(=O)NC2C(=O)NC3C(=O)NC(C(=O)NC(C(=O)O)c4cc(O)cc(O)c4-c4cc3ccc4O)C(OC3CC(C)(N)C(O)C(C)O3)c3ccc(c(Cl)c3)Oc3cc2cc(c3OC2OC(CO)C(O)C(O)C2OC2CC(C)(NCc3ccc(-c4ccc(C#N)cc4)cc3)C(O)C(C)O2)Oc2ccc(cc2Cl)C1O` (stereo not drawn) [Compound 231, 4-[4-cyanophenyl]benzyl], the MIC was not above 0.06 µg/mL in experiment [1], not above 0.06 µg/mL in experiment [2] and 0.5 µg/mL (≈ 0.28 µM) in experiment [3].

As for `CCCCCCCC#Cc1ccc(CN[C@@]2(C)C[C@H](O[C@H]3[C@H](Oc4c5cc6cc4Oc4ccc(cc4Cl)[C@@H](O[C@H]4C[C@](C)(N)[C@@H](O)[C@H](C)O4)[C@@H]4NC(=O)[C@H](NC(=O)[C@@H]6NC(=O)[C@H](CC(N)=O)NC(=O)[C@H](NC(=O)[C@@H](CC(C)C)NC)[C@H](O)c6ccc(c(Cl)c6)O5)c5ccc(O)c(c5)-c5c(O)cc(O)cc5[C@@H](C(=O)O)NC4=O)O[C@H](CO)[C@@H](O)[C@@H]3O)O[C@@H](C)[C@@H]2O)cc1` [Compound 232, 4-[1-nonynyl]benzyl], the MIC in experiment [1] turned out to be 2 µg/mL (≈ 1.11 µM); in experiment [2], 8 µg/mL (≈ 4.43 µM); in experiment [3], 32 µg/mL (≈ 17.7 µM).
